Numbering of substitutions follows the chain as printed. Several values for one entry are separate records, joined by “and”; a condition that tells them apart may be missing. Equal entries are not always repeated. Square brackets hold non-standard residues; d marks the D form. Peptide text beside a SMILES is read from it. * marks the point of attachment. FITC = O=C1OC2(c3ccc(O)cc3Oc3cc(O)ccc32)c2ccc(NC(=S)*)cc21; Nle = CCCC[C@H](N)C(=O)O; For = O=C*
How the values were obtained:
FPR1 haplotype CH1 = biological target: T1, FPR1 haplotype CH1 (Homo sapiens, UniProt P21462, E346A/I11T/V101L); experiment: FACScan saturation binding of fNLFNYK–FITC, CH1 cells; conditions: CHO-Gα16 cells, 4°C, 1 h
T1 construct: Vectors including FPR1 ORFs were transfected into CHO-Gα16 cells; expressed in transfected cells
T1 sequence (P21462 1-350 I11T/V101L/E346A): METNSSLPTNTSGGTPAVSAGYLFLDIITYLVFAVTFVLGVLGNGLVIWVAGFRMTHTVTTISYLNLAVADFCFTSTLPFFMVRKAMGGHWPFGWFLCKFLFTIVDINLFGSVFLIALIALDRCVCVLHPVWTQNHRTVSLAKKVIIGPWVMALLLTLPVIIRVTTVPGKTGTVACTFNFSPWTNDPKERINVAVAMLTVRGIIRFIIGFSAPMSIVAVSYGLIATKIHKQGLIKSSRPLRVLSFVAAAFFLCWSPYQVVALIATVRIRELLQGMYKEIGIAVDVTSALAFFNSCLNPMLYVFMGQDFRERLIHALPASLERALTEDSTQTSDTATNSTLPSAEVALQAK
Description: (§1) Stable clones expressing FPR1 haplotypes were selected after 10 days of culture under the selection of 600 μg/ml G418 and identified by FACScan analysis after binding of 20 nM of the fluorescent ligand fNLFNYK–FITC to the CHO cell transfectants for 45 min at 4°C.
(§2) CHO cells were added to 3 mM KCl, 100 mM NaCl, 10 mM sodium phosphate, 1 mM Mg^2+ and 1 mM Ca^2+, pH 7.4, containing 5% fetal bovine serum and incubated at 4°C for 1 h with various concentrations of fNLFNYK–FITC. The mean fluorescence of the cells was determined after subtracting the readout of cells without fNLFNYK–FITC. The results were analysed by non-linear least squares analysis to determine Kd and Bmax values. […] Data from at least two different experiments in duplicate were analysed.

FPR1 haplotype CH2 = biological target: T2, FPR1 haplotype CH2 (Homo sapiens, UniProt P21462, E346A/I11T); experiment: FACScan saturation binding of fNLFNYK–FITC, CH2 cells; conditions: CHO-Gα16 cells, 4°C, 1 h
T2 construct: Vectors including FPR1 ORFs were transfected into CHO-Gα16 cells; expressed in transfected cells
T2 sequence (P21462 1-350 I11T/E346A): T1 sequence (P21462 1-350 I11T/V101L/E346A) with L101V
Description: as §1, §2

FPR1 haplotype CH3 = biological target: T3, FPR1 haplotype CH3 (Homo sapiens, UniProt P21462, E346A/I11T/N192K); experiment: FACScan saturation binding of fNLFNYK–FITC, CH3 cells; conditions: CHO-Gα16 cells, 4°C, 1 h
T3 construct: Vectors including FPR1 ORFs were transfected into CHO-Gα16 cells; expressed in transfected cells
T3 sequence (P21462 1-350 I11T/N192K/E346A): T1 sequence (P21462 1-350 I11T/V101L/E346A) with L101V, N192K
Description: as §1, §2

FPR1 haplotype CH4 = biological target: T4, FPR1 haplotype CH4 (Homo sapiens, UniProt P21462, I11T); experiment: FACScan saturation binding of fNLFNYK–FITC, CH4 cells; conditions: CHO-Gα16 cells, 4°C, 1 h
T4 construct: Vectors including FPR1 ORFs were transfected into CHO-Gα16 cells; expressed in transfected cells
T4 sequence (P21462 1-350 I11T): T1 sequence (P21462 1-350 I11T/V101L/E346A) with L101V, A346E
Description: as §1, §2

FPR1 haplotype CH5 = biological target: T5, FPR1 haplotype CH5 (Homo sapiens, UniProt P21462, E346A/I11T/N192K/V101L); experiment: FACScan saturation binding of fNLFNYK–FITC, CH5 cells; conditions: CHO-Gα16 cells, 4°C, 1 h
T5 construct: Vectors including FPR1 ORFs were transfected into CHO-Gα16 cells; expressed in transfected cells
T5 sequence (P21462 1-350 I11T/V101L/N192K/E346A): T1 sequence (P21462 1-350 I11T/V101L/E346A) with N192K
Description: as §1, §2

FPR1 haplotype CH6 = biological target: T6, FPR1 haplotype CH6 (Homo sapiens, UniProt P21462, E346A/I11T/R190W); experiment: FACScan saturation binding of fNLFNYK–FITC, CH6 cells; conditions: CHO-Gα16 cells, 4°C, 1 h
T6 construct: Vectors including FPR1 ORFs were transfected into CHO-Gα16 cells; expressed in transfected cells
T6 sequence (P21462 1-350 I11T/R190W/E346A): T1 sequence (P21462 1-350 I11T/V101L/E346A) with L101V, R190W
Description: as §1, §2

FPR1 haplotype CH7 = experiment: FACScan saturation binding of fNLFNYK–FITC, CH7 cells; parameters: species or system human; conditions: CHO-Gα16 cells, 4°C, 1 h
Description: as §1, §2

FPR1 haplotype CH8 = biological target: T7, FPR1 haplotype CH8 (Homo sapiens, UniProt P21462, I11T/V101L); experiment: FACScan saturation binding of fNLFNYK–FITC, CH8 cells; conditions: CHO-Gα16 cells, 4°C, 1 h
T7 construct: Vectors including FPR1 ORFs were transfected into CHO-Gα16 cells; expressed in transfected cells
T7 sequence (P21462 1-350 I11T/V101L): T1 sequence (P21462 1-350 I11T/V101L/E346A) with A346E
Description: as §1, §2

FPR1 haplotype CH9 = biological target: T8, FPR1 haplotype CH9 (Homo sapiens, UniProt P21462, E346A/I11T/R190W/V101L); experiment: FACScan saturation binding of fNLFNYK–FITC, CH9 cells; conditions: CHO-Gα16 cells, 4°C, 1 h
T8 construct: expressed in transfected cells
T8 sequence (P21462 1-350 I11T/V101L/R190W/E346A): T1 sequence (P21462 1-350 I11T/V101L/E346A) with R190W
Description: as §1, §2

FPR1 haplotype CH10 = experiment: FACScan saturation binding of fNLFNYK–FITC, CH10 cells; parameters: species or system human; conditions: CHO-Gα16 cells, 4°C, 1 h
Description: as §1, §2

FPR1 haplotype CH11 = biological target: T9, FPR1 haplotype CH11 (Homo sapiens, UniProt P21462); experiment: FACScan saturation binding of fNLFNYK–FITC, CH11 cells; conditions: CHO-Gα16 cells, 4°C, 1 h
T9 construct: expressed in transfected cells
T9 sequence (P21462 1-350): T1 sequence (P21462 1-350 I11T/V101L/E346A) with T11I, L101V, A346E
Description: (§3) Transfection of FPR1 haplotype cDNAs into CHO-Gα16 cells was carried out with the Gene Pulser Xcell Electroporation System from Bio-Rad Laboratories. […] Vectors containing the ORFs of the human FPR1 gene (8 μg in a volume of 8 μl) were added to the cells. Following a 280 V and 20 ms pulse (squarewave), the cells were immediately returned to 10 ml of culture medium and incubated for 24 h. Stable clones expressing FPR1 haplotypes were selected after 10 days of culture under the selection of 600 μg/ml G418 and identified by FACScan analysis after binding of 20 nM of the fluorescent ligand fNLFNYK–FITC to the CHO cell transfectants for 45 min at 4°C.
as §2

FPR1 haplotype CH12 = biological target: T10, FPR1 haplotype CH12 (Homo sapiens, UniProt P21462, V101L); experiment: FACScan saturation binding of fNLFNYK–FITC, CH12 cells; conditions: CHO-Gα16 cells, 4°C, 1 h
T10 construct: expressed in transfected cells
T10 sequence (P21462 1-350 V101L): T1 sequence (P21462 1-350 I11T/V101L/E346A) with T11I, A346E
Description: as §1, §2

FPR1 haplotypes = experiment: FACScan binding of fNLFNYK–FITC, different FPR1 haplotypes; parameters: species or system human; conditions: different FPR1 haplotypes CH1–CH12
Description: as §3, §2

CHO-Gα16-FPR1 cells = experiment: fMLF-induced ERK1/2 phosphorylation, CHO-Gα16-FPR1 cells; assay type: cell-based, human; conditions: fMLF 10 nM, 5 min, Western blot
Description: Activation of the p44/p42 MAPKs (ERK1/2) was determined as described previously [12] with modest modifications. Briefly, cells were cultured in 24-well plates at 5×10^5 cells/well for 24 h and serum starved for 2 h. They were pretreated with the indicated amounts of cyclosporins for 5 min before fMLF (10 nM) stimulation in HBSS/BSA. […] Samples were transferred to microcentrifuge tubes and sonicated twice for 5 s each to disperse DNA contents. After boiling, samples were analysed by SDS/PAGE and Western blotting using anti-ERK1/2 and anti-phospho-ERK1/2 antibodies at a 1:1000 dilution. Horseradish peroxidase-conjugated anti-rabbit antibody (1:3000 dilution) was used as the secondary antibody. The resulting immunocomplex was visualized using the SuperSignal West Pico chemiluminescence kit (Pierce Biotechnology) according to the manufacturer's instructions. The relative intensities of the bands from the PVDF membrane (Millipore) were quantified using the ChemDoc MP System (Bio-Rad) and Image-Pro Plus software (MediaCybernetics).

[1] = system: CHO-Gα16-FPR1 haplotype-expressing cells; experiment: Calcium mobilization by fMLF, four cell lines; assay type: cell-based, human; conditions: CH1, CH2, CH3 and CH5 cells; different concentrations of fMLF
Description: A calcium mobilization assay was performed as described previously with minor modifications [33]. Briefly, CHO-Gα16-FPR1 cells were plated on to 96-well plates at a density of 15000 cells in 100 μl of medium per well and incubated for 24 h. Cells were loaded with 5 μM Fluo-4/AM in HBSS (Hanks balanced saline solution) supplemented with 2.5 mM probenecid for 45 min and then washed twice with HBSS.

Molecule: CCCC[C@H](NC=O)C(=O)N[C@@H](CC(C)C)C(=O)N[C@@H](Cc1ccccc1)C(=O)N[C@@H](CCCC)C(=O)N[C@@H](Cc1ccc(O)cc1)C(=O)N[C@@H](CCCCNC(=S)Nc1ccc2c(c1)C(=O)OC21c2ccc(O)cc2Oc2cc(O)ccc21)C(=O)O [fNLFNYK–FITC, N-formyl-Nle-Leu-Phe-Nle-Tyr-Lys–FITC] (For-[Nle]LF[Nle]YK(FITC)-OH; N-terminus and C-terminus assumed)
- Bmax (FPR1 haplotype CH1): 48336±4553
- Bmax (FPR1 haplotype CH2): 47657±9098
- Bmax (FPR1 haplotype CH3): 59135±4185
- Bmax (FPR1 haplotype CH4): 33860 and 33860±4977
- Bmax (FPR1 haplotype CH5): 42575±4902
- Bmax (FPR1 haplotype CH6): 34093±693
- Kd (FPR1 haplotype CH7; CH7 (T11/V101/R190/K192/E346), pH 7.4, FACScan, at least two experiments in duplicate): 1.7 ± 0.3 nM
- Bmax (FPR1 haplotype CH7; CH7, FACScan): 60688±10388
- Bmax (FPR1 haplotype CH8): 36362±353
- Bmax (FPR1 haplotype CH9): 39009±6672
- Kd (FPR1 haplotype CH10; CH10 (T11/L101/W190/N192/E346), pH 7.4, FACScan, at least two experiments in duplicate): 2.4 ± 0.3 nM
- Bmax (FPR1 haplotype CH10; CH10, FACScan): 41751±615
- Bmax (FPR1 haplotype CH11): 37713±5841
- Bmax (FPR1 haplotype CH12): 65059 and 65059±3570
- receptor affinity of fNLFNYK–FITC (in words) (FPR1 haplotypes): varied moderately

Molecule: N-formyl-methionyl-leucyl-phenylalanine [fMLF]
- phosphorylation of ERK1/2 (in words) (CHO-Gα16-FPR1 cells): significant increase
- calcium mobilization (in words) [1]: elicited calcium mobilization dose-dependently

Reference: article PMC3632010, “V101L of human formyl peptide receptor 1 (FPR1) increases receptor affinity and augments the antagonism mediated by cyclosporins” (Biochemical Journal, 2013)
